# Assay results reported in patent US20230123334A1, “AMINO LIPID COMPOUND, PREPARATION METHOD THEREFOR, AND APPLICATION THEREOF” (SHENZHEN SHENXIN BIOTECHNOLOGY CO., LTD., priority 2020, published 2023).
# Test system: HEK293 cells
# Assay: Preliminary screening as DNA vectors, GFP transfection of HEK293 cells
# Format: cell-based
# Conditions: amino lipid/DOPE liposome with 75 ng plasmid DNA (psin-EGFP-IRES-Puro); number of GFP-expressing cells divided by total nuclei (Hoechst)
# Outline: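 HEK293 cells in DMEM/10% FBS transfected with 75 ng EGFP plasmid per well complexed with amino lipid/DOPE liposomes in pH 5.6 sodium acetate. Hoechst nuclear stain added 20-24 h post-transfection, then cells cultured another 20-24 h. Confocal imaging gives GFP-positive cells as % of total nuclei.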
row,Structure (SMILES),Absolute DNA transfection efficiency in HEK293 cells
1,CCCCCCCCCCCCCCCCCCNc1nc(NCCCN2CCOCC2)nc(SCCCCCCCCCCCCCCC)n1 [S15N18 D8],0.3%
2,CCCCCCCCCCCCCCCCCCNc1nc(NCCCN2CCN(C)CC2)nc(SCCCCCCCCCCCCCCC)n1 [S15N18 D9],0.4%
3,CCCCCCCCCCCCCCCCCCNc1nc(NCC2CCN(C)CC2)nc(SCCCCCCCCCCCCCCC)n1 [S15N18 D10],1.2%
4,CCCCCCCCCCCCCCCSc1nc(NCCN(C)C)nc(N(CCCCCCCCCCCC)CCCCCCCCCCCC)n1 [S15^2N12 D1],0.0%
5,CCCCCCCCCCCCCCCSc1nc(NCCN2CCOCC2)nc(N(CCCCCCCCCCCC)CCCCCCCCCCCC)n1 [S15^2N12 D2],0.0%
6,CCCCCCCCCCCCCCCSc1nc(NCCN2CCCC2)nc(N(CCCCCCCCCCCC)CCCCCCCCCCCC)n1 [S15^2N12 D3],0.1%
7,CCCCCCCCCCCCCCCSc1nc(NCCN2CCCCC2)nc(N(CCCCCCCCCCCC)CCCCCCCCCCCC)n1 [S15^2N12 D4],0.0%
8,CCCCCCCCCCCCCCCSc1nc(NCCN2CCN(C)CC2)nc(N(CCCCCCCCCCCC)CCCCCCCCCCCC)n1 [S15^2N12 D5],0.7%
9,CCCCCCCCCCCCCCCSc1nc(NCCCN(C)C)nc(N(CCCCCCCCCCCC)CCCCCCCCCCCC)n1 [S15^2N12 D6],0.0%
10,CCCCCCCCCCCCCCCSc1nc(NCCN(CC)CC)nc(N(CCCCCCCCCCCC)CCCCCCCCCCCC)n1 [S15^2N12 D7],0.2%
11,CCCCCCCCCCCCCCCSc1nc(NCCCN2CCOCC2)nc(N(CCCCCCCCCCCC)CCCCCCCCCCCC)n1 [S15^2N12 D8],0.0%
12,CCCCCCCCCCCCCCCSc1nc(NCCCN2CCN(C)CC2)nc(N(CCCCCCCCCCCC)CCCCCCCCCCCC)n1 [S15^2N12 D9],0.9%
13,CCCCCCCCCCCCCCCSc1nc(NCC2CCN(C)CC2)nc(N(CCCCCCCCCCCC)CCCCCCCCCCCC)n1 [S15^2N12 D10],1.0%
14,CCCCCCCCCCCCCCCCSc1nc(NCCCCCC)nc(NCCN(C)C)n1 [S16N6 D1],8.0%
15,CCCCCCCCCCCCCCCCSc1nc(NCCCCCC)nc(NCCN2CCOCC2)n1 [S16N6 D2],16.5%
16,CCCCCCCCCCCCCCCCSc1nc(NCCCCCC)nc(NCCN2CCCC2)n1 [S16N6 D3],35.3%
17,CCCCCCCCCCCCCCCCSc1nc(NCCCCCC)nc(NCCN2CCCCC2)n1 [S16N6 D4],6.0%
18,CCCCCCCCCCCCCCCCSc1nc(NCCCCCC)nc(NCCN2CCN(C)CC2)n1 [S16N6 D5],18.7%
19,CCCCCCCCCCCCCCCCSc1nc(NCCCCCC)nc(NCCCN(C)C)n1 [S16N6 D6],24.1%
20,CCCCCCCCCCCCCCCCSc1nc(NCCCCCC)nc(NCCN(CC)CC)n1 [S16N6 D7],5.8%
21,CCCCCCCCCCCCCCCCSc1nc(NCCCCCC)nc(NCCCN2CCOCC2)n1 [S16N6 D8],11.6%

row,Structure (SMILES),Absolute DNA transfection efficiency in HEK293 cells
1,CCCCCCCCCCCCCCCCSc1nc(NCCCCCC)nc(NCCCN2CCN(C)CC2)n1 [S16N6 D9],9.6%
2,CCCCCCCCCCCCCCCCSc1nc(NCCCCCC)nc(NCC2CCN(C)CC2)n1 [S16N6 D10],14.5%
3,CCCCCCCCCCCCCCCCSc1nc(NCCCCCCC)nc(NCCN(C)C)n1 [S16N7 D1],13.0%
4,CCCCCCCCCCCCCCCCSc1nc(NCCCCCCC)nc(NCCN2CCOCC2)n1 [S16N7 D2],16.6%
5,CCCCCCCCCCCCCCCCSc1nc(NCCCCCCC)nc(NCCN2CCCC2)n1 [S16N7 D3],8.9%
6,CCCCCCCCCCCCCCCCSc1nc(NCCCCCCC)nc(NCCN2CCCCC2)n1 [S16N7 D4],6.9%
7,CCCCCCCCCCCCCCCCSc1nc(NCCCCCCC)nc(NCCN2CCN(C)CC2)n1 [S16N7 D5],10.1%
8,CCCCCCCCCCCCCCCCSc1nc(NCCCCCCC)nc(NCCCN(C)C)n1 [S16N7 D6],12.9%
9,CCCCCCCCCCCCCCCCSc1nc(NCCCCCCC)nc(NCCN(CC)CC)n1 [S16N7 D7],7.3%
10,CCCCCCCCCCCCCCCCSc1nc(NCCCCCCC)nc(NCCCN2CCOCC2)n1 [S16N7 D8],12.0%
11,CCCCCCCCCCCCCCCCSc1nc(NCCCCCCC)nc(NCCCN2CCN(C)CC2)n1 [S16N7 D9],9.8%
12,CCCCCCCCCCCCCCCCSc1nc(NCCCCCCC)nc(NCC2CCN(C)CC2)n1 [S16N7 D10],3.4%
13,CCCCCCCCCCCCCCCCSc1nc(NCCCCCCCC)nc(NCCN(C)C)n1 [S16N8 D1],10.0%
14,CCCCCCCCCCCCCCCCSc1nc(NCCCCCCCC)nc(NCCN2CCOCC2)n1 [S16N8 D2],14.6%
15,CCCCCCCCCCCCCCCCSc1nc(NCCCCCCCC)nc(NCCN2CCCC2)n1 [S16N8 D3],13.2%
16,CCCCCCCCCCCCCCCCSc1nc(NCCCCCCCC)nc(NCCN2CCCCC2)n1 [S16N8 D4],8.4%
17,CCCCCCCCCCCCCCCCSc1nc(NCCCCCCCC)nc(NCCN2CCN(C)CC2)n1 [S16N8 D5],6.7%
18,CCCCCCCCCCCCCCCCSc1nc(NCCCCCCCC)nc(NCCCN(C)C)n1 [S16N8 D6],11.1%
19,CCCCCCCCCCCCCCCCSc1nc(NCCCCCCCC)nc(NCCN(CC)CC)n1 [S16N8 D7],4.6%
20,CCCCCCCCCCCCCCCCSc1nc(NCCCCCCCC)nc(NCCCN2CCOCC2)n1 [S16N8 D8],16.5%
21,CCCCCCCCCCCCCCCCSc1nc(NCCCCCCCC)nc(NCCCN2CCN(C)CC2)n1 [S16N8 D9],10.9%

row,Structure (SMILES),Absolute DNA transfection efficiency in HEK293 cells
1,CCCCCCCCCCCCCCCCSc1nc(NCCCCCCCCC)nc(NCCN(C)C)n1 [S16N9 D1],7.5%
2,CCCCCCCCCCCCCCCCSc1nc(NCCCCCCCCC)nc(NCCN2CCOCC2)n1 [S16N9 D2],7.4%
3,CCCCCCCCCCCCCCCCSc1nc(NCCCCCCCCC)nc(NCCN2CCCC2)n1 [S16N9 D3],13.7%
4,CCCCCCCCCCCCCCCCSc1nc(NCCCCCCCCC)nc(NCCN2CCCCC2)n1 [S16N9 D4],9.1%
5,CCCCCCCCCCCCCCCCSc1nc(NCCCCCCCCC)nc(NCCN2CCN(C)CC2)n1 [S16N9 D5],7.8%
6,CCCCCCCCCCCCCCCCSc1nc(NCCCCCCCCC)nc(NCCCN(C)C)n1 [S16N9 D6],11.7%
7,CCCCCCCCCCCCCCCCSc1nc(NCCCCCCCCC)nc(NCCN(CC)CC)n1 [S16N9 D7],5.3%
8,CCCCCCCCCCCCCCCCSc1nc(NCCCCCCCCC)nc(NCCCN2CCOCC2)n1 [S16N9 D8],6.7%
9,CCCCCCCCCCCCCCCCSc1nc(NCCCCCCCCC)nc(NCCCN2CCN(C)CC2)n1 [S16N9 D9],9.5%
10,CCCCCCCCCCCCCCCCSc1nc(NCCCCCCCCC)nc(NCC2CCN(C)CC2)n1 [S16N9 D10],6.9%
11,CCCCCCCCCCCCCCCCSc1nc(NCCCCCCCCCCC)nc(NCCN(C)C)n1 [S16N11 D1],17.2%
12,CCCCCCCCCCCCCCCCSc1nc(NCCCCCCCCCCC)nc(NCCN2CCOCC2)n1 [S16N11 D2],9.6%
13,CCCCCCCCCCCCCCCCSc1nc(NCCCCCCCCCCC)nc(NCCN2CCCC2)n1 [S16N11 D3],16.6%
14,CCCCCCCCCCCCCCCCSc1nc(NCCCCCCCCCCC)nc(NCCN2CCCCC2)n1 [S16N11 D4],5.8%
15,CCCCCCCCCCCCCCCCSc1nc(NCCCCCCCCCCC)nc(NCCN2CCN(C)CC2)n1 [S16N11 D5],9.5%
16,CCCCCCCCCCCCCCCCSc1nc(NCCCCCCCCCCC)nc(NCCCN(C)C)n1 [S16N11 D6],10.3%
17,CCCCCCCCCCCCCCCCSc1nc(NCCCCCCCCCCC)nc(NCCN(CC)CC)n1 [S16N11 D7],15.5%
18,CCCCCCCCCCCCCCCCSc1nc(NCCCCCCCCCCC)nc(NCCCN2CCOCC2)n1 [S16N11 D8],5.0%
19,CCCCCCCCCCCCCCCCSc1nc(NCCCCCCCCCCC)nc(NCCCN2CCN(C)CC2)n1 [S16N11 D9],9.6%
20,CCCCCCCCCCCCCCCCSc1nc(NCCCCCCCCCCC)nc(NCC2CCN(C)CC2)n1 [S16N11 D10],0.0%
21,CCCCCCCCCCCCCCCCSc1nc(NCCCCCCCCCCCC)nc(NCCN(C)C)n1 [S16N12 D1],4.2%
